From PubChem BioAssay AID1963449 (Molecular Pharmacology Branch, DTP, NCI, 2024)

Test system: 596521-263-R-J1-PDC complex spheroid growth
Test: Anticancer human tumor 596521-263-R-J1-PDC patient-derived soft tissue sarcoma cell line growth inhibition [Asc]
Settings: for IC50: curve of first compound; for viability, T/C: stronger effect = lower value
Method in brief: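 Tumor cells were grown as multicellular spheroids with stromal HUVEC and mesenchymal stem cells and treated singly or in combination. Concentrations fell in half-log steps from the clinical Cmax, or from 10 microM where none was known.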

[1] = second compound 0.00316 µM, first compound 0.00316 µM
[2] = second compound 0.00316 µM, first compound 0.01 µM
[3] = second compound 0.00316 µM, first compound 0.0316 µM
[4] = second compound 0.00316 µM, first compound 0.1 µM
[5] = second compound 0.01 µM, first compound 0.00316 µM
[6] = second compound 0.01 µM, first compound 0.01 µM
[7] = second compound 0.01 µM, first compound 0.0316 µM
[8] = second compound 0.01 µM, first compound 0.1 µM
[9] = second compound 0.0316 µM, first compound 0.00316 µM
[10] = second compound 0.0316 µM, first compound 0.01 µM
[11] = second compound 0.0316 µM, first compound 0.0316 µM
[12] = second compound 0.0316 µM, first compound 0.1 µM
[13] = second compound 0.1 µM, first compound 0.00316 µM
[14] = second compound 0.1 µM, first compound 0.01 µM
[15] = second compound 0.1 µM, first compound 0.0316 µM
[16] = second compound 0.1 µM, first compound 0.1 µM
[17] = second compound 0.316 µM, first compound 0.00316 µM
[18] = second compound 0.316 µM, first compound 0.01 µM
[19] = second compound 0.316 µM, first compound 0.0316 µM
[20] = second compound 0.316 µM, first compound 0.1 µM
[21] = second compound 1 µM, first compound 0.00316 µM
[22] = second compound 1 µM, first compound 0.01 µM
[23] = second compound 1 µM, first compound 0.0316 µM
[24] = second compound 1 µM, first compound 0.1 µM
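Also: spheroids exposed to compounds for 7 days.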

CCN1CCN(Cc2ccc(Nc3ncc(F)c(-c4cc(F)c5nc(C)n(C(C)C)c5c4)n3)nc2)CC1 + CNC(C)C(=O)NC1CN(S(=O)(=O)c2cccc(S(=O)(=O)N3CCC4CCC(C(=O)NC(c5ccccc5)c5ccccc5)N4C(=O)C(NC(=O)C(C)NC)C3)c2)CCC2CCC(C(=O)NC(c3ccccc3)c3ccccc3)N2C1=O
IC50 (second compound 0.00316 µM): > 1000 nM
IC50 (second compound 0.01 µM): > 1000 nM
IC50 (second compound 0.0316 µM): > 1000 nM
IC50 (second compound 0.1 µM): > 1000 nM
IC50 (second compound 0.316 µM): > 1000 nM
IC50 (second compound 1 µM): > 1000 nM
viability, T/C [1]: 90.8%
viability, T/C [2]: 81.4%
viability, T/C [3]: 77%
viability, T/C [4]: 79.8%
viability, T/C (second compound 0.00316 µM, first compound 0.316 µM): 81.7%
viability, T/C (second compound 0.00316 µM, first compound 1 µM): 74.1%
viability, T/C [5]: 98.6%
viability, T/C [6]: 87.5%
viability, T/C [7]: 81.2%
viability, T/C [8]: 84.6%
viability, T/C (second compound 0.01 µM, first compound 0.316 µM): 81.6%
viability, T/C (second compound 0.01 µM, first compound 1 µM): 91.3%
viability, T/C [9]: 79.9%
viability, T/C [10]: 83.4%
viability, T/C [11]: 79%
viability, T/C [12]: 76.8%
viability, T/C (second compound 0.0316 µM, first compound 0.316 µM): 93.5%
viability, T/C (second compound 0.0316 µM, first compound 1 µM): 76%
viability, T/C [13]: 73%
viability, T/C [14]: 78.8%
viability, T/C [15]: 76%
viability, T/C [16]: 86%
viability, T/C (second compound 0.1 µM, first compound 0.316 µM): 79.7%
viability, T/C (second compound 0.1 µM, first compound 1 µM): 84.8%
viability, T/C [17]: 75.4%
viability, T/C [18]: 78.1%
viability, T/C [19]: 74.8%
viability, T/C [20]: 77.3%
viability, T/C (second compound 0.316 µM, first compound 0.316 µM): 84.7%
viability, T/C (second compound 0.316 µM, first compound 1 µM): 78.3%
viability, T/C [21]: 70.4%
viability, T/C [22]: 76%
viability, T/C [23]: 72.3%
viability, T/C [24]: 70.7%
viability, T/C (second compound 1 µM, first compound 0.316 µM): 72.7%
viability, T/C (second compound 1 µM, first compound 1 µM): 69.4%

Cn1ncnc1[C@H]1c2n[nH]c(=O)c3cc(F)cc(c23)N[C@@H]1c1ccc(F)cc1 + CNC(C)C(=O)NC1CN(S(=O)(=O)c2cccc(S(=O)(=O)N3CCC4CCC(C(=O)NC(c5ccccc5)c5ccccc5)N4C(=O)C(NC(=O)C(C)NC)C3)c2)CCC2CCC(C(=O)NC(c3ccccc3)c3ccccc3)N2C1=O
IC50 (second compound 0.00316 µM): < 0.316 nM
IC50 (second compound 0.01 µM): > 100 nM
IC50 (second compound 0.0316 µM): > 100 nM
IC50 (second compound 0.1 µM): > 100 nM
IC50 (second compound 0.316 µM): > 100 nM
IC50 (second compound 1 µM): > 100 nM
viability, T/C (second compound 0.00316 µM, first compound 0.000316 µM): 16.1%
viability, T/C (second compound 0.00316 µM, first compound 0.001 µM): 16%
viability, T/C [1]: 15.3%
viability, T/C [2]: 16.5%
viability, T/C [3]: 15.2%
viability, T/C [4]: 15.6%
viability, T/C (second compound 0.01 µM, first compound 0.000316 µM): 76%
viability, T/C (second compound 0.01 µM, first compound 0.001 µM): 62.1%
viability, T/C [5]: 63.8%
viability, T/C [6]: 64.2%
viability, T/C [7]: 67.4%
viability, T/C [8]: 57.3%
viability, T/C (second compound 0.0316 µM, first compound 0.000316 µM): 92.6%
viability, T/C (second compound 0.0316 µM, first compound 0.001 µM): 75.9%
viability, T/C [9]: 73%
viability, T/C [10]: 76.9%
viability, T/C [11]: 64.1%
viability, T/C [12]: 64.7%
viability, T/C (second compound 0.1 µM, first compound 0.000316 µM): 81.9%
viability, T/C (second compound 0.1 µM, first compound 0.001 µM): 81%
viability, T/C [13]: 79.9%
viability, T/C [14]: 71.1%
viability, T/C [15]: 62.2%
viability, T/C [16]: 60.3%
viability, T/C (second compound 0.316 µM, first compound 0.000316 µM): 83.3%
viability, T/C (second compound 0.316 µM, first compound 0.001 µM): 74.7%
viability, T/C [17]: 79.3%
viability, T/C [18]: 64%
viability, T/C [19]: 65.1%
viability, T/C [20]: 60.6%
viability, T/C (second compound 1 µM, first compound 0.000316 µM): 73.2%
viability, T/C (second compound 1 µM, first compound 0.001 µM): 76.8%
viability, T/C [21]: 71.5%
viability, T/C [22]: 77.3%
viability, T/C [23]: 64.1%
viability, T/C [24]: 58.3%
